From patent US11167040B2, “Conjugates comprising peptide groups and methods related thereto” (priority 2015, dated 2021)
Square brackets hold non-standard residues; d marks the D form. Peptide text beside a SMILES is read from it. Dolaproine = CO[C@@H]([C@@H]1CCCN1)[C@@H](C)C(=O)O; Dil = CC[C@H](C)[C@H](NC)[C@@H](CC(=O)O)OC; NMeV = CN[C@H](C(=O)O)C(C)C

Columns and labels:
[1] = system: A431 cells, which express high levels of EGFR; test: Cytotoxicity of Erbitux based ADCs, SRB; type: cell-based; conditions: 72 hours; read-out: IC50 against A431 cells
Protocol: (§1) A431 cells, which express high levels of EGFR, and MCF-7 cells, which express low levels of EGFR, were plated at about 1000 cells per well in a 96-well plate in 100 μL of media. HCC-827 cells, which express an intermediate level of EGFR were plated at about 5000 cells per well in a 96-well plate in 100 μL of media. […] The cells were incubated for 72 hours and then fixed for 1 hour at 4° C. after adding 100 μL of ice-cold 10% trichloroacetic acid to each well.

[2] = system: MCF-7 cells, which express low levels of EGFR; test: Cytotoxicity of Erbitux based ADCs, SRB; type: cell-based; conditions: 72 hours; read-out: IC50 against MCF-7 cells
Protocol: as §1

[3] = system: HCC-827 cells, which express an intermediate level of EGFR; test: Cytotoxicity of Erbitux based ADCs, SRB; type: cell-based; conditions: 72 hours; read-out: IC50 against HCC-827 cells
Protocol: as §1

NCI-N87 (HER2 positive) = test: Cytotoxicity of anti-HER2 ADCs, SRB assay; type: cell-based, human; conditions: Table 12, hybrid ADCs
Protocol: (§2) Commercially available human breast cancer cell lines MCF-7 (HER2 negative to normal), OE-19 (HER2 positive), NCI-N87 (HER2 positive), SK-OV-3 (HER2 positive), JIMT-1 (HER2 positive), and SK-BR-3 (HER2 positive) were used. The cell lines were cultured according to recommended specifications provided with the commercially available cell lines.
(§3) Anti-proliferation activities of the antibodies, drugs, and conjugates with regard to the cancer cell lines were measured. The cells were plated in 96-well, tissue culture plates at 1×10^4 cells per well. After 24 hour incubation, the antibodies, drugs, and conjugates were added in various concentrations. The number of viable cells after 72 hours were counted using SRB assay. Absorbance was measured at 540 nm using SpectraMax 190 (Molecular Devices, USA).

[4] = system: MCF-7 (HER2 negative to normal); test: Cytotoxicity of anti-HER2 ADCs, SRB assay; type: cell-based, human; conditions: Table 12, hybrid ADCs
Protocol: as §2, §3

SK-OV-3 (HER2 positive) = test: Cytotoxicity of anti-HER2 ADCs, SRB assay; type: cell-based, human; conditions: Table 12, hybrid ADCs
Protocol: as §2, §3

SK-BR3 cells = test: Plasma stability of ADCs: human plasma incubation, then SRB cytotoxicity test; type: cell-based; conditions: Table 18; human plasma 0 h; SK-BR3 cells 72 hr; read-out: Plasma stability of Herceptin based ADCs (nM), Plasma incubation time 0 h

## CC[C@H](C)[C@@H]([C@@H](CC(=O)N1CCC[C@H]1[C@H](OC)[C@@H](C)C(=O)N[C@@H](Cc1ccccc1)C(=O)OC)OC)N(C)C(=O)[C@@H](NC(=O)[C@@H](NC)C(C)C)C(C)C [MMAF-OMe, monomethyl auristatin F methyl ester] (H-[NMeV]V[Dil][Dolaproine]F-OMe)
[1]
  IC50: 1.11 nM
[2]
  IC50: 1.81 nM
[3]
  IC50: 1.99 nM
NCI-N87 (HER2 positive)
  IC50: 0.49 nM
[4]
  IC50: 0.6 nM
SK-OV-3 (HER2 positive)
  IC50: 0.78 nM
SK-BR3 cells
  IC50: 0.48 nM
